Converted amounts (≈) assume the structure as drawn. Read-outs that look alike come from different tables or passages of the source.
Tests used:
[1] = tested on: Plasmodium falciparum, chloroquine-resistant strain K1; test: activity against P. falciparum in vitro, strain K1; assay type: cell-based; conditions: chloroquine-resistant strain K1, 48 h-72 h; for IC50: Plasmodium falciparum, read-out: IC50 (50% growth inhibition)
Method: (§1) Test method for the determination of the activity against P. falciparum in vitro
(§2) The preparations of the present invention were tested on intraerythrocytary stages of P. falciparum from asynchronous cultures according to the method of Desjardin et al. (Desjardins, R. E. et al: Quantitative assessment of antimalarial activity in vitro by a semiautomated microdilution technique. Antimicrob. Agents Chemother. 16, 710-718, (1979)).
(§3) The culture medium consisted of RPMI 1640 with the addition of 25 mM HEPES, 25 mM NaHCO3, […] neomycin and 10% human serum (A^+). Human-A^+ erythrocytes were used as the P. falciparum host cells. The parasites were maintained at 37° C. in an atmosphere of 3% O2, 4% CO2, 93% N2 and at 95% relative humidity.
(§4) In order to determine the activity, the preparations were dissolved in DMSO, pre-diluted in the culture medium to a suitable starting concentration and subsequently titrated-out into microtitre plates in the 2nd stage over 6-7 steps. After the addition of the parasite culture (0.7% parasitemia in 2.5% erythrocyte suspension), the test plates were incubated under the conditions given above for 48 h-72 h. The parasite growth in the different preparation concentrations was determined using [G-^3 H]-hypoxanthin incorporation compared to untreated control cultures on the same test plates. The 50% growth inhibition (IC50) was calculated according to logit regression analysis from the resulting dosage-activity curve.
(§5) The preparations were tested on at least one chloroquine-resistant and one chloroquine-sensitive P. falciparum strain. Additional sensitive and resistant strains were also included for further characterization.
(§6) Table 1 below contains the IC50 values measured in vitro for the growth inhibition of chloroquine-sensitive and chloroquine-resistant strains of the human pathogenic Plasmodium falciparum.

[2] = tested on: Plasmodium berghei (strain ANKA); test: activity against Plasmodium berghei in vivo (infected mice); conditions: mice; for ED50: single administration po, dose reducing average erythrocyte infection rate by 50%, read-out: ED50 (po); for inhibition in vivo at 10 mg/kg: 48 hours after treatment (D+3)
Method: Test method for the determination of the activity against Plasmodium berghei in vivo
The preparations according to the present invention were tested on mice infected with malaria pathogens (Plasmodium berghei). Male albino mice (IBM:MORO(SPF), FUELLINSDORF) weighing about 25 g were used as the test animals. They were kept in climatized rooms at 21°-22° C. in groups of 5 animals per cage. They received ad libitum a diet feed with a low PABA content ("NAFAG FUTTER" No. 9009 PAB-45, PABA content 45 mg/kg) and drinking water. On the first day of the test (D0) the test animals were infected with Plasmodium berghei (strain ANKA). For this there was used heparinized blood of a donor mouse with about 30% parasitemia, which was diluted with physiological saline such that it contains 10^8 parasitized erythrocytes per ml. 0.2 ml of this suspension was injected intravenously (i.v.) into the mice to be treated and into the control mice. In untreated control animals the parasitemia normally reaches 30-40% on the third day after the infection (D+3) and the test animals die between days +5 and +7.
The substances to be tested were dissolved or suspended in distilled water or in a mixture of 7% Tween 80, 3% alcohol (96%) and water. Usually, 0.25 ml of this solution or suspension was administered once subcutaneously and perorally to groups of 5 test animals. Treatment was effected 24 hours after the infection. 10 control animals were treated in the same manner with solvent or suspension medium per test.
All substances were tested in a first test in a single dosage of 10 mg/kg. Only those substances which in this test (10 mg/kg) had shown a parasitaemia reduction of 90% were used for the titration.
48 hours after the treatment (D+3), blood smears were prepared from all animals using blood from tail veins and were stained with Giemsa. The average erythrocyte infection rate (parasitemia in %) in the control groups as well as in the groups which had been treated with the test compounds was determined by counting under a microscope. The difference in the average values of the infection rates of control group (100%) and treated groups was calculated and expressed as a percentage reduction (GI %). The ED50 or ED90 was determined mathematically by means of the JMP programme (nonlinear fit). The ED50 (ED90) in mg/kg is that dose which after single administration reduces the average erythrocyte infection rate by 50% (90%) in comparison to the control group.
Table 2 below contains data with respect to the activity measured against Plasmodium berghei in mice: GI % is the percentage reduction in the parasitemia after a single dose of 10 mg/kg of the test substance administered perorally (po) or subcutaneously (sc); ED50 and ED90 are the effective doses of the test substance administered perorally or subcutaneously.

[3] = tested on: Plasmodium falciparum, chloroquine-sensitive strain NF54; test: activity against P. falciparum in vitro, strain NF54; assay type: cell-based; conditions: chloroquine-sensitive strain NF54, 48 h-72 h; for IC50: Plasmodium falciparum, read-out: IC50 (50% growth inhibition)
Method: as §1, §2, §3, §4, §5, §6

[4] = tested on: Plasmodium falciparum, chloroquine-sensitive strain HB3; test: activity against P. falciparum in vitro, strain HB3; assay type: cell-based; conditions: chloroquine-sensitive strain HB3, 48 h-72 h, read-out: IC50 (50% growth inhibition)
Method: as §1, §2, §3, §4, §5, §6

[5] = tested on: Plasmodium falciparum, chloroquine-resistant strain W2; test: activity against P. falciparum in vitro, strain W2; assay type: cell-based; conditions: chloroquine-resistant strain W2, 48 h-72 h, read-out: IC50 (50% growth inhibition)
Method: as §1, §2, §3, §4, §5, §6

[6] = tested on: Plasmodium falciparum, chloroquine-resistant strain Indo; test: activity against P. falciparum in vitro, strain Indo; assay type: cell-based; conditions: chloroquine-resistant strain Indo, 48 h-72 h, read-out: IC50 (50% growth inhibition)
Method: as §1, §2, §3, §4, §5, §6

[7] = tested on: Plasmodium falciparum, chloroquine-resistant strain 7G8; test: activity against P. falciparum in vitro, strain 7G8; assay type: cell-based; conditions: chloroquine-resistant strain 7G8, 48 h-72 h, read-out: IC50 (50% growth inhibition)
Method: as §1, §2, §3, §4, §5, §6

[8] = tested on: Plasmodium falciparum, chloroquine-sensitive strain FCH5C2; test: activity against P. falciparum in vitro, strain FCH5C2; assay type: cell-based; conditions: chloroquine-sensitive strain FCH5C2, 48 h-72 h, read-out: IC50 (50% growth inhibition)
Method: as §1, §2, §3, §4, §5, §6

[9] = tested on: Plasmodium falciparum, chloroquine-resistant strain RFCR3; test: activity against P. falciparum in vitro, strain RFCR3; assay type: cell-based; conditions: chloroquine-resistant strain RFCR3, 48 h-72 h, read-out: IC50 (50% growth inhibition)
Method: as §1, §2, §3, §4, §5, §6

[10] = tested on: Plasmodium falciparum, chloroquine-resistant strain ItG2 F6; test: activity against P. falciparum in vitro, strain ItG2 F6; assay type: cell-based; conditions: chloroquine-resistant strain ItG2 F6, 48 h-72 h, read-out: IC50 (50% growth inhibition)
Method: as §1, §2, §3, §4, §5, §6

[11] = tested on: Plasmodium falciparum, chloroquine-resistant strain W2 Mef; test: activity against P. falciparum in vitro, strain W2 Mef; assay type: cell-based; conditions: 48 h-72 h, read-out: IC50 (50% growth inhibition)
Method: as §1, §2, §3, §4, §5, §6

[12] = tested on: Plasmodium falciparum, chloroquine-sensitive strain Ro7 3; test: activity against P. falciparum in vitro, strain Ro7 3; assay type: cell-based; conditions: chloroquine-sensitive strain Ro7 3, 48 h-72 h, read-out: IC50 (50% growth inhibition)
Method: as §1, §2, §3, §4, §5, §6

[13] = tested on: Plasmodium falciparum, chloroquine-sensitive strain RFMEF3; test: activity against P. falciparum in vitro, strain RFMEF3; assay type: cell-based; conditions: chloroquine-sensitive strain RFMEF3, 48 h-72 h, read-out: IC50 (50% growth inhibition)
Method: as §1, §2, §3, §4, §5, §6

[14] = single dose 10 mg/kg po, read-out: GI % at 10 mg/kg (po): percentage reduction in the parasitemia
[15] = single dose 10 mg/kg sc, read-out: GI % at 10 mg/kg (sc): percentage reduction in the parasitemia

Compound	IC50 [1]	ED50 [2]	inhibition in vivo at 10 mg/kg [2, 14]	inhibition in vivo at 10 mg/kg [2, 15]	IC50 [3]	IC50 [4]	IC50 [5]	IC50 [6]	IC50 [7]	IC50 [8]	IC50 [9]	IC50 [10]	IC50 [11]	IC50 [12]	IC50 [13]	IC50 (50% growth inhibition) [1]	IC50 (50% growth inhibition) [3]
C[C@@H](CN(C)C)Nc1ccnc2cc(Cl)ccc12 [Example 33c, (S)-N2-(7-Chloro-quinolin-4-yl)-N1,N1-dimethyl-propane-1,2-diamine]	24 ng/mL (≈ 0.091 µM)	1.9 mg/kg	99.9%	99.9%	8 ng/mL (≈ 0.0303 µM)												
Clc1ccc2c(NCCN3CCCC3)ccnc2c1 [Example 7, (7-Chloro-quinolin-4-yl)-(2-pyrrolidin-1-yl-ethyl)-amine]	8 ng/mL (≈ 0.029 µM)				4 ng/mL (≈ 0.0145 µM)	6 ng/mL (≈ 0.0218 µM)	7 ng/mL (≈ 0.0254 µM)	4 ng/mL (≈ 0.0145 µM)	8 ng/mL (≈ 0.029 µM)	7 ng/mL (≈ 0.0254 µM)	7 ng/mL (≈ 0.0254 µM)	5 ng/mL (≈ 0.0181 µM)	8 ng/mL (≈ 0.029 µM)				
CCN(CC)C[C@H](C)Nc1ccnc2cc(Cl)ccc12 [Example 33e, (S)-N2-(7-Chloro-quinolin-4-yl)-N1,N1-diethyl-propane-1,2-diamine]	53 ng/mL (≈ 0.182 µM)	3.1 mg/kg	99.8%	99.9%	12 ng/mL (≈ 0.0411 µM)												
C[C@H](CN(C)C)Nc1ccnc2cc(Cl)ccc12 [Example 33d, (R)-N2-(7-Chloro-quinolin-4-yl)-N1,N1-dimethyl-propane-1,2-diamine]	23 ng/mL (≈ 0.0872 µM)	2.2 mg/kg	99.9%	99.9%	8 ng/mL (≈ 0.0303 µM)												
CCN(CC)CCNc1ccnc2cc(C(F)(F)F)ccc12 [Example 21, N1,N1 -Diethyl-N2-(7-trifluoromethyl-quinolin-4-yl)-ethane-1,2-diamine]	34 ng/mL (≈ 0.109 µM)				21 ng/mL (≈ 0.0674 µM)	33 ng/mL (≈ 0.106 µM)	57 ng/mL (≈ 0.183 µM)	31 ng/mL (≈ 0.0996 µM)	49 ng/mL (≈ 0.157 µM)	35 ng/mL (≈ 0.112 µM)	54 ng/mL (≈ 0.173 µM)	28 ng/mL (≈ 0.0899 µM)		28 ng/mL (≈ 0.0899 µM)	35 ng/mL (≈ 0.112 µM)		
Clc1ccc2c(NCCCN3CCCC3)ccnc2c1 [Example 17, (7-Chloro-quinolin-4-yl)-(3-pyrrolidin-1-yl-propyl)-amine]	15 ng/mL (≈ 0.0518 µM)	4.6 mg/kg	95%	99%	3 ng/mL (≈ 0.0104 µM)	6 ng/mL (≈ 0.0207 µM)	14 ng/mL (≈ 0.0483 µM)	7 ng/mL (≈ 0.0242 µM)	14 ng/mL (≈ 0.0483 µM)	4 ng/mL (≈ 0.0138 µM)	11 ng/mL (≈ 0.038 µM)	7 ng/mL (≈ 0.0242 µM)		6 ng/mL (≈ 0.0207 µM)	8 ng/mL (≈ 0.0276 µM)		
CCN(CC)CCNc1ccnc2cc(Cl)ccc12 [Example 6, N2-(7-Chloro-quinolin-4-yl)-N1,N1-diethyl-ethane-1,2-diamine]	9 ng/mL (≈ 0.0324 µM)	3.5 mg/kg	99%	99%	5 ng/mL (≈ 0.018 µM)	8 ng/mL (≈ 0.0288 µM)	8 ng/mL (≈ 0.0288 µM)	4 ng/mL (≈ 0.0144 µM)	9 ng/mL (≈ 0.0324 µM)	8 ng/mL (≈ 0.0288 µM)	8 ng/mL (≈ 0.0288 µM)	5 ng/mL (≈ 0.018 µM)					
CCN(CC)CCCNc1ccnc2cc(Cl)ccc12 [Example 16, N3-(7-Chloro-quinolin-4-yl)-N1,N1-diethyl-propane-1,3-diamine]	9 ng/mL (≈ 0.0308 µM)	2 mg/kg	99.9%	99.9%	3 ng/mL (≈ 0.0103 µM)	5 ng/mL (≈ 0.0171 µM)	9 ng/mL (≈ 0.0308 µM)	4 ng/mL (≈ 0.0137 µM)	9 ng/mL (≈ 0.0308 µM)	6 ng/mL (≈ 0.0206 µM)	8 ng/mL (≈ 0.0274 µM)	5 ng/mL (≈ 0.0171 µM)					
CN(C)CCCNc1ccnc2cc(Cl)ccc12 [Example 15, N3-(7-Chloro-quinolin-4-yl)-N1,N1-dimethyl-propane-1,3-diamine]	6 ng/mL (≈ 0.0227 µM)	2 mg/kg	99.8%	99.9%	2 ng/mL (≈ 0.00758 µM)	3 ng/mL (≈ 0.0114 µM)	7 ng/mL (≈ 0.0265 µM)	3 ng/mL (≈ 0.0114 µM)	7 ng/mL (≈ 0.0265 µM)	5 ng/mL (≈ 0.019 µM)	5 ng/mL (≈ 0.019 µM)	3 ng/mL (≈ 0.0114 µM)	12 ng/mL (≈ 0.0455 µM)				
C[C@@H](CNc1ccnc2cc(Cl)ccc12)N(C)C [Example 33g, (S)-N1-(7-chloro-quinoline-4-yl)-N2,N2-dimethyl-propane-1,2-diamine]	17 ng/mL (≈ 0.0644 µM)				5 ng/mL (≈ 0.019 µM)												
CCN(CC)C[C@@H](C)Nc1ccnc2cc(Cl)ccc12 [Example 33f, (R)-N2 (7-Chloro-quinolin-4-yl)-N1,N1-diethyl-propane-1,2-diamine]	41 ng/mL (≈ 0.14 µM)	2.8 mg/kg	99.8%	99.9%	12 ng/mL (≈ 0.0411 µM)												
CN(C)CCNc1ccnc2cc(Cl)ccc12 [Example 5, N2-(7-Chloro-quinolin-4-yl)-N1,N1-dimethyl-ethane-1,2-diamine]	7 ng/mL (≈ 0.028 µM)	3.3 mg/kg	99.5%	99%	4 ng/mL (≈ 0.016 µM)	6 ng/mL (≈ 0.024 µM)	7 ng/mL (≈ 0.028 µM)	4 ng/mL (≈ 0.016 µM)	7 ng/mL (≈ 0.028 µM)	9 ng/mL (≈ 0.036 µM)	6 ng/mL (≈ 0.024 µM)	4 ng/mL (≈ 0.016 µM)	9 ng/mL (≈ 0.036 µM)				
(R)-N1 -(7-Chloro-quinolin-4-yl)-N2,N2 -dimethyl-propane-1,2-diamine [Example 33h]																18 ng/mL	7 ng/mL

Source: US5596002A, “Method of treating chloroquine-resistant malaria with aminoquinoline derivatives” (Hoffmann-La Roche Inc., priority 1993, dated 1997)
